From patent publication US11299493B2, “Heterocyclic compounds and uses thereof” (NUVATION BIO INC., priority 2017, dated 2022)

How the values were obtained:
[1] = target: WEE1 kinase enzyme (Homo sapiens (Human), UniProt P30291); experiment: WEE1 IC50 determination, LanthaScreen Terbium Labeled TR-FRET kinase assay; format: biochemical; conditions: WEE1 enzyme 1 nM, ATP 10 μM, 1 h
[2] = tested on: NCI-H460 cells; experiment: Cell proliferation assay (Cell Titer-Glo) in NCI-H460 cells; format: cell-based; conditions: Homo sapiens, typically 72 h
Experimental: (§1) The effects of test compounds were studied in five cell lines with various histotypes. The cancer cells (Table 4) were harvested during the logarithmic growth period and counted. Adjust cell concentrations to the appropriated number with respective medium, and add 90 μL cell suspensions to 96-well plates. After cells were seeded, the plates were shaken gently to distribute cells evenly and incubated at 37° C., 5% CO2 on day 1.
(§2) Cells were treated with test compounds at 9 concentrations within a desired concentration range (e.g. 1.5 nM-10 μM) on day 2 by series diluting the test compound stock solution (10 mM in DMSO) with culture medium. Cell viability was assessed by Cell Titer-Glo® as recommended by Promega (Cat. No.: G7572, Promega) typically 72 h post-treatment.
(§3) Cell viability data were plotted using GraphPad Prism (version 5, GraphPad Software, Inc., San Diego, Calif.). In addition, a nonlinear regression model with a sigmoidal dose response and variable slope within GraphPad Prism was used to calculate the IC50 value of individual test compounds.

[3] = tested on: A427 cells; experiment: Cell proliferation assay (Cell Titer-Glo) in A427 cells; format: cell-based; conditions: Homo sapiens, A-427, typically 72 h
Experimental: as §1, §3

[4] = tested on: LoVo cells; experiment: Cell proliferation assay (Cell Titer-Glo) in LoVo cells; format: cell-based; conditions: Homo sapiens, typically 72 h
Experimental: as §1, §2, §3

[5] = tested on: HCT-116 cells; experiment: Cell proliferation assay (Cell Titer-Glo) in HCT-116 cells; format: cell-based; conditions: Homo sapiens; HCT-116, Cell Titer-Glo, typically 72 h; read-out: IC50 HCT116
Experimental: as §1, §2, §3

[6] = tested on: A427 cells; experiment: Cytotoxicity assay (resazurin) in A427 cells; format: cell-based; conditions: Homo sapiens, A-427, A427, 72 hr, read-out: Cell Viability IC50 A427
[7] = tested on: A549 cells; experiment: Cytotoxicity assay (resazurin) in A549 cells; format: cell-based; conditions: Homo sapiens, A549, 96 hr, read-out: Cell Viability IC50 A549
Experimental: Cells were allowed to grow at 37° C. for 24 hr in 5% CO2 environment (culture conditions) in a Nuaire incubator (humidified). Serially diluted test compounds (100 μL) within the desired testing concentration ranges were added to the culture plate were further incubated in culture conditions for 72 hr and 96 hr for A427 and A549 respectively. The experiment was terminated at the designated incubation time by replacing the medium with 100 μL of 1 mM of resazurin (R7017; Sigma) prepared in respective culture medium, and the plates were further incubated in culture conditions for 4-6 hr. Fluorescence was recorded using a multimodal plate reader (Biotek Synergy Neo) at an excitation wavelength of 535 nm and emission wavelength of 590 nm to obtain relative fluorescence units. Data analysis was done by subtracting the background fluorescence (only medium blank) value from each reading and then normalizing with the vehicle control (DMSO treated cells) to obtain percent survival/proliferation. Percent survival was then subtracted by 100 to get the percent inhibition of proliferation which was used to calculate IC50 values.

WEE1 kinase enzyme, sequence (P30291 whole entry): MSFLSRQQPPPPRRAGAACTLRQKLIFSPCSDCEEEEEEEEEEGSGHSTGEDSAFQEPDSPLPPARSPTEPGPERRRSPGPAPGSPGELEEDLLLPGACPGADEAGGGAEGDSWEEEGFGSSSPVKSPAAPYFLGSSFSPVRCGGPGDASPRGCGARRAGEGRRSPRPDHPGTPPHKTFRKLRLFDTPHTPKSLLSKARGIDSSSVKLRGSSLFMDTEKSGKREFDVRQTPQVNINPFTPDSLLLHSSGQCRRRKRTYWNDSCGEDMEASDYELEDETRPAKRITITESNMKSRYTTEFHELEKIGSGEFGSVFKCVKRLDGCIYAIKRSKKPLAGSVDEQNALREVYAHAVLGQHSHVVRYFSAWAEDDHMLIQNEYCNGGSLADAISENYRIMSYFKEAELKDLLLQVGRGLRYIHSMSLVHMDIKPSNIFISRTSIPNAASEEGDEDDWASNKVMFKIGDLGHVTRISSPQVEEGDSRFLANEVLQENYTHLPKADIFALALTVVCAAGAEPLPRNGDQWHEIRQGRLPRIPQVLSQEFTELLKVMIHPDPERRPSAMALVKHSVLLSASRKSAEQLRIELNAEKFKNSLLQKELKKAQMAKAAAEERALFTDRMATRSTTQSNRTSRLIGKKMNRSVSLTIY

In the case of `C=CCn1c(=O)c2cnc(Nc3ccc4c(c3)CNCC4)nc2n1-c1cccc(C(C)(C)O)n1` [Example 1.1], the IC50 [1] is reported as 2.4 nM, the IC50 [2] is reported as greater than 10000 nM and the IC50 [3] is reported as 64 nM. The IC50 [4] was 258 nM, the IC50 [5] was 1040 nM and the IC50 [6] was 95 nM. The IC50 [7] was 460 nM.
